Laboratory results reported in patent publication US20020007079A1, “MEIOSIS REGULATING COMPOUNDS” (priority 1998, published 2002).

How the values were obtained:
[1] = system: oocytes; experiment: agonistic oocyte assay (germinal vesicle breakdown); format: cell-based, mice; details: for relative GVB (relative effect): indexed against control (0) and FF-MAS (100); for GVB (percentage of oocytes undergoing germinal vesicle breakdown): oocytes cultured 24 hours at 37° C. in Hx-medium (3 mM hypoxanthine)
Experimental: An agonistic oocyte assay can be performed as follows:
Oocytes were obtained from immature female mice (C57BL/6J×DBA/2J F1, Bomholtgaard, Denmark) weighing 13-16 grams, that were kept under controlled temperature (20-22° C.), light (lights on 06.00-18.00) and relative humidity (50-70%). The mice received an intra-peritoneal injection of 0.2 ml gonadotropins (Gonal-F, Serono) containing 20 IU FSH and 48 hours later the animals were killed by cervical dislocation.
The ovaries were dissected out and the oocytes were isolated in Hx-medium (see below) under a stereo microscope by manual rupture of the follicles using a pair of 27 gauge needles. Spherical oocytes displaying an intact germinal vesicle (hereinafter designated GV) were divided in cumulus enclosed oocytes (hereinafter designated CEO) and naked oocytes (hereinafter designated NO) and placed in a-minimum essential medium (α-MEM without ribonucleosides, Gibco BRL, Cat. No. 22561) supplemented with 3 mg/ml bovine serum albumin (BSA, Sigma Cat. No. A-7030), 5 mg/ml human serum albumin (HSA, Statens Seruminstitute, Denmark), 0.23 mM pyruvate (Sigma, Cat. No S-8636), 2 mM glutamine (Flow Cat. No. 16-801), 100 IU/ml penicillin and 100 μg/ml streptomycin (Flow, Cat No. 16-700). This medium was supplemented with 3 mM hypoxanthine (Sigma Cat. No. H-9377) and designated Hx-medium.
The oocytes were rinsed three times in Hx-medium and oocytes of uniform size were divided into groups of CEO and NO. CEO and NO were cultured in 4-well multidishes (Nunclon, Denmark) in which each well contained 0.4 ml of Hx-medium. One control well (i.e., 35-45 oocytes cultured in identical medium with no addition of test compound) was always cultured simultaneously with 3 test wells (35-45 oocytes per well supplemented with test compound).
The oocytes were cultured in a humidified atmosphere of 5% CO2 in air for 24 hours at 37° C. By the end of the culture period, the number of oocytes with germinal vesicle (hereinafter designated GV), germinal vesicle breakdown (hereinafter designated GVB) and polar bodies (hereinafter designated PB), respectively, were counted using a stereomicroscope (Wildt, Leica MZ 12). The percentage GVB, defined as percentage of oocytes undergoing GVB per total number of oocytes in that well, was calculated as:
% GVB=(number of GVB+number of PB/total number oocytes)×100.
The % PB was defined as percentage of oocytes displaying one extruded polar body per total number of oocytes in that well.
The effect of the tested compounds has been indexed against control level and 4,4-5 dimethyl-5β-cholesta-8,14,24-trien-39-ol (hereinafter designated FF-MAS) where controls and FF-MAS are indexed to an effect of 0 and 100, respectively. The relative effect of the tested compound is calculated as follows: […]

[2] = system: naked oocytes (NO); experiment: antagonistic oocyte assay (co-culture with FF-MAS); format: cell-based, mice; details: naked oocytes in Hx-medium with 5 μM FF-MAS in co-culture with test compound
Experimental: An antagonistic oocyte assay can be performed as follows:
20 Oocytes were obtained from immature female mice (C57BI/6J×DBA/2J F1-hybrids, Bomholtgaard, Denmark) weighing 13-16 grams, that were kept under controlled lighting and temperature. The mice received an intra-peritoneal injection of 0.2 ml gonadotropins (Gonal F, Serono, Solna, Sweden, containing 20 IU FSH, alternatively, Puregon, Organon, Swords, Ireland containing 20 IU FSH) and 48 hours later the animals were killed by cervical dislocation.
The ovaries were dissected out and the oocytes were isolated in Hx-medium (see below) under a stereo microscope by manual rupture of the follicles using a pair of 27 gauge needles. […]
By the end of the culture period, the number of oocytes with germinal vesicle (GV) or germinal vesicle breakdown (GVB) and those with polar body (PB) was counted using a stereo-microscope or an inverted microscope with differential interference contrast equipment. The percentage of oocytes with GVB+PB per total number of oocytes were calculated in the test cultures and in the control (positive and negative) culture groups. The relative inhibition of the test compound was calculated by the following formula: […]

[3] = system: oocytes; experiment: in vitro fertilization (IVF) assay; format: cell-based, mice; details: GVB oocytes after 18 hours culture, examined 20-22 hours after insemination; control 22%
Experimental: An in vitro fertilization (IVF) assay can be performed as follows:
Naked oocytes (NO) and cumulus enclosed oocytes (CEO) from immature mice (C57B1 16J×DBAJ/2)F, were isolated and cultured under the same conditions as described for the agonistic oocyte assay (Example 5). […] The dishes were then incubated under defined gas conditions (5% CO2) at 37° C. in a modified (α-MEM IVF-medium. Neither the insemination medium nor the IVF-medium contained hypoxanthine. Examination of the oocytes was carried out 20-22 hours after insemination, in order to check fertilization and to record the number of 2-cell embryos. The percentage fertilization (=fertilization rate) was determined from counts of oocytes that had cleaved into two-cell embryos.

[4] = system: naked oocytes (NO); details: previously shown, Byskov et al. Nature 374 (1995), 559-562; cited from earlier work

(25R)-160.26-Dihydroxycholest-5-ene [Example 4]
relative GVB (relative effect) [1]: 73%
GVB (percentage of oocytes undergoing germinal vesicle breakdown) [1]: 63%
PB (oocytes with polar body) [2]: 5%

CC(C)CCC[C@@H](C)[C@H]1[C@@H](O)C[C@H]2[C@@H]3CC=C4CCCC[C@]4(C)[C@H]3CC[C@]12C [Example 1, 16β-Hydroxycholest-5-ene]
melting point: 107 to 108 °C
relative GVB (relative effect) [1]: 88%
GVB (percentage of oocytes undergoing germinal vesicle breakdown) [1]: 72%
fertilization rate (oocytes cleaved into two-cell embryos) [3]: 62%

CC(C)=CCC[C@@H](C)[C@H]1CC=C2C3=C(CC[C@@]21C)[C@@]1(C)CC[C@H](O)C(C)(C)[C@@H]1CC3 [FF-MAS, 4,4-Dimethyl-5α-cholesta-8,14,24-trien-3β-ol]
induction of meiosis in NO in vitro [4]: induce meiosis
